Test results published in patent publication US5459160A, “Iridoid derivatives and the use thereof as a drug” (Tsumura & Co., priority 1990, dated 1995).

What was measured:
hyperlipemia [1] = test: Anti-hyperlipemia test in rats on high fat food (Experimental Example 4); format: in vivo, Male Wistar rats; details: peroral once a day, two weeks, control 100, Table 5
From the text: Male Wistar rats 6.5 weeks old were allowed to freely intake a high fat food (0.5% cholesterol, 1.0% cholic acid, 20.0% casein, 50.5% cane sugar, 12.0% hardened coconut oil, 4.0% cellulose, 4.0% mineral mixture, 0.5% vitamine mixture, 7.5% white fish meal) in the course of two weeks so as to cause the outbreak of hyperlipemia. The dose of the drug was started simultaneously with the application of the high fat food, and was perorally given once a day through a stomach tube until the end of the experiment. The drugs were all suspended in a cane sugar fatty acid ester and were administered. The oily compounds were adjusted in advance to 100 mg/m.iota. by diethyl ether. A suitable amount was collected at the time of the dose and after diethyl ether was evaporated and removed, it was suspended in a cane sugar fatty acid ester (1% ryoto sugar ester) and was then given. After the final dose of the drug, the rats were fasted for about 18 hours, and the blood was sampled to measure the blood serum lipid. The blood serum lipid was measured by using a TBA-380 bio-chemical analyzer (a product of Toshiba Medical Co.,) unless a particular hindrance occurred.

bile secretion = test: Cholagogic action, bile secretion (Experimental Example 5); format: in vivo, male Wistar rats; details: intraduodenal
Experimental: After male Wistar rats 7 weeks old were fasted for 24 hours, they were anesthetized by the interperitoneal administration of 1.25 g/kg (volume 2 m.iota./kg) of urethane. A polyethylene canula (SP-10, a product of Natsume Seisakusho) was inserted into a bile duct and after the bile was caused to flow out for 30 minutes, the bile was collected in the cource of 1 hour. Thereafter, each test drug was suspended or dissolved in a 1% aqueous Tween-80 solution, and was administered into the duodenum at a rate of 5 m.iota./kg. Furthermore, the bile was collected every hour in the course of five hours, and its weight was measured. Only a 1% Tween-80 solution was given as a control.
The results are tabulated in Tables 6, 7, 8, 9 and 10, wherein the bile secretion amount every hour was represented by a percentage with the bile secretion amount (mg) one hour before the dose of the test drug being 100.

hyperlipemia [2] = test: Anti-hyperlipemia test in rats on high fat food (Experimental Example 1); format: in vivo, Male Wistar rats; details: peroral once a day, two weeks, control 100, Table 1
From the text: Male Wistar rats 6.5 weeks old were allowed to freely intake a high fat food (containing 1% of cholesterol, 0.5% of sodium cholate, 12% of beef tallow and 20% of standard chow) in the cource of two weeks, to thus cause an outbreak of hyperlipemia. The dose of the drug was started simultaneously with the application of the high fat food, and was perorally given once a day through a stomach tube until the end of the experiment. The drugs were all suspended in a cane sugar fatty acid ester and were administered. The oily compounds were adjusted in advance to 100 mg/m.iota. by diethyl ether. A suitable amount was collected at the time of the dose and after diethyl ether was evaporated and removed, it was suspended in a cane sugar fatty acid ester (1% ryoto sugar ester) and then given. After the final dose of the drug, the rats were fasted for about 18 hours, and the blood was sampled to measure the blood serum lipid. The blood serum lipid was measured by using a TBA-380 biochemical analyzer (a product of Toshiba Medical Co.,) unless a particular hindrance occurred.

Acute toxicity test = details: mouse, in vivo, ip; male S.P.P. mice, abdominally administered; Table 11
Experimental: The acute toxicity test was carried out by abdominally administering each test drug to male S.P.P. mice and determining an LD50 value.

[3] = test system: cholesterol synthesis in liver slices; test: Cholesterol synthesis from [1-14C] acetic acid in liver slices (Experimental Example 2); format: cell-based, male Wistar rats; details: drug final concentration 0.1-1.0 mM, 37° C., 120 minutes; control 100; Table 2
Experimental: Liver slices (0.5 mm) were prepared from male Wistar rats 5 weeks old acclimated for 10 days in a bright/dark inversion raising chamber (bright period: 8:00 p.m.-8:00 a.m.). […] Incubation was carried out at 37° C. for 120 minutes in 95% oxygen and 5% carbon dioxide. The reaction was stopped by adding 1 m.iota. of 15% potassium hydroxide/ethanol, and saponification was carried out at 80° C. for 2 hours. The sterol fraction was extracted by petroleum ether and was evaporated to driness. Thereafter, 1 m.iota. of acetone/ethanol (1:1) and 1 m.iota. of 0.5% digitonine were added, and the mixture was left standing for a night at room temperature. The precipitate was collected by centrifugal separation and was washed with 2 m.iota. of acetone/ether (1:1). The precipitate was further centrifuged. After the supernatant was discarded, the precipitate was dissolved in methanol and its radioactivity was measured.

[4] = 0-1 hour after dose, control 84.1, Table 8
[5] = 1-2 hour after dose, control 72.5, Table 8
[6] = 2-3 hour after dose, control 63.8, Table 8
[7] = 3-4 hour after dose, control 56.7, Table 8
[8] = 4-5 hour after dose, control 51.2, Table 8
[9] = 0-1 hour after dose, control 82.9, Table 10
[10] = 1-2 hour after dose, control 74.1, Table 10
[11] = 2-3 hour after dose, control 66.1, Table 10
[12] = 3-4 hour after dose, control 59.8, Table 10
[13] = 4-5 hour after dose, control 53.3, Table 10

Structure (SMILES) | Blood serum cholesterol (%) (hyperlipemia [1]; 10 mg/kg) | Blood serum cholesterol (%) (hyperlipemia [1]; 30 mg/kg) | Bile secretion amount, percentage of the hour before dose (bile secretion; [4]) | Bile secretion amount, percentage of the hour before dose (bile secretion; [5]) | Bile secretion amount, percentage of the hour before dose (bile secretion; [6]) | Bile secretion amount, percentage of the hour before dose (bile secretion; [7]) | Bile secretion amount, percentage of the hour before dose (bile secretion; [8]) | Blood serum cholesterol (%) (hyperlipemia [2]; 10 mg/kg) | Blood serum triglyceride (%) (hyperlipemia [2]; 10 mg/kg) | Blood serum cholesterol (%) (hyperlipemia [2]; 30 mg/kg) | Blood serum triglyceride (%) (hyperlipemia [2]; 30 mg/kg) | LD50 (Acute toxicity test) | Bile secretion amount, percentage of the hour before dose (bile secretion; [9]) | Bile secretion amount, percentage of the hour before dose (bile secretion; [10]) | Bile secretion amount, percentage of the hour before dose (bile secretion; [11]) | Bile secretion amount, percentage of the hour before dose (bile secretion; [12]) | Bile secretion amount, percentage of the hour before dose (bile secretion; [13]) | Relative amount of synthesized cholesterol (%) [3] | further results
COC(=O)C1=COC(O)[C@H]2[C@@H]1CC[C@@H]2C (stereo partly drawn) [Definite Example 4, methyl (4aS, 7S, 7aR)-1,4a, 5,6,7,7a-hexahydro-1-hydroxy-7-methylcyclopenta[c]pyran-4-carboxylate] | 85.3% | 75.0% | 150.8% | 93.7% | 74.0% | 63.9% | 57.2% | 73.3% | 86.0% | 75.4% | 91.0% | – | – | – | – | – | – | – | Bile secretion amount, percentage of the hour before dose (bile secretion; 0-1 hour after dose, control 82.9, Table 6): 146.9%; Bile secretion amount, percentage of the hour before dose (bile secretion; 1-2 hour after dose, control 74.1, Table 6): 97.8%; Bile secretion amount, percentage of the hour before dose (bile secretion; 2-3 hour after dose, control 66.1, Table 6): 85.4%; Bile secretion amount, percentage of the hour before dose (bile secretion; 3-4 hour after dose, control 59.8, Table 6): 77.2%; Bile secretion amount, percentage of the hour before dose (bile secretion; 4-5 hour after dose, control 53.3, Table 6): 71.8%
COC(=O)C1=CO[C@@H](OC(C)=O)[C@H]2[C@@H]1CC1OCC12OC(C)=O (stereo partly drawn) [Definite Example 30, methyl (iS, 4aS, 7aS)-1,7-diacetoxy-6,7-(epoxymethano)-1,4a, 5,6,7,7a-hexahydrocyclopenta[c]pyran-4-carboxylate] | – | – | – | – | – | – | – | – | – | – | – | 468 mg/kg | 97.9% | 83.1% | 69.7% | 61.0% | 53.9% | 50.1% | –
COC(=O)C1=COC(O)[C@@H]2C(C)=CC[C@H]12 (stereo partly drawn) [Definite Example 9, methyl (4aS, 7aS)-1,4a, 5,7a-tetrahydro-1-hydroxy-7-methylcyclopenta[c]pyran-4-carboxylate] | 70.8% | 62.8% | 134.5% | 90.9% | 76.5% | 66.7% | 59.4% | 93.6% | 74.5% | 59.3% | 60.0% | 407 mg/kg | – | – | – | – | – | – | –
COC(=O)C1=COC(=O)[C@@H]2[C@H](C)CC[C@H]12 [Definite Example 32, methyl (4aS, 7R, 7aR)-1,4a, 5,6,7,7a-hexahydro-7-methyl-1-oxocyclopenta[c]pyran-4-carboxylate] | – | – | – | – | – | – | – | – | – | – | – | – | 110.7% | 80.6% | 66.2% | 55.6% | 49.6% | 96.2% | –
CC(=O)O[C@@H]1OC=C(CO)[C@H]2CC=C(CO)[C@@H]12 [Definite Example 27, (1S, 4aS, 7aS)-1-acetoxy-4,7-bis(hydroxymethyl)-1,4a, 5,7a-tetrahydrocyclopenta[c]pyran] | – | – | – | – | – | – | – | – | – | – | – | 473 mg/kg | 98.3% | 75.3% | 59.0% | 48.7% | 43.5% | 73.5% | –
